Here are results for 3 molecules from PMC8839882, “A New Series of Aryloxyacetic Acids Endowed with Multi-Target Activity towards Peroxisome Proliferator-Activated Receptors (PPARs), Fatty Acid Amide Hydrolase (FAAH), and Acetylcholinesterase (AChE)” (Molecules, 2022).

Assay [1] addresses T1, human PPARα (hPPARα) (Homo sapiens, UniProt Q07869).
T1 construct: expressed in transfected cells; host or cells: HepG2 (human hepatoblastoma)
T1 sequence (Q07869 239-466 limits assumed): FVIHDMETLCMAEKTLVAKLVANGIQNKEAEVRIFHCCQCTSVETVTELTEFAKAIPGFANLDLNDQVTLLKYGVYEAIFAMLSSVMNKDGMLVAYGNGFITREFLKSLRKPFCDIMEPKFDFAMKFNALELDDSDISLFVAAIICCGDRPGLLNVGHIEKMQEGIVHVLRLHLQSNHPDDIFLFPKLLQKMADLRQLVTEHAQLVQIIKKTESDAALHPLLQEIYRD
Put plainly: GAL4-PPARα transactivation assay in transiently transfected HepG2 cells. The settings on record: HepG2. It is filed as cell-based. From the text:
For this purpose, GAL4-PPAR chimeric receptors were expressed in transiently transfected HepG2 cells according to a previously reported procedure. […] Maximum obtained fold induction with the reference agonist was defined as 100%.
The expression vectors bearing the chimeric receptor containing the yeast Gal4-DNA binding domain fused to the human PPARα- or PPARγ-LBD, and the reporter plasmid for these Gal4 chimeric receptors (pGal5TKpGL3), comprising five repeats of the Gal4 response elements upstream of a minimal thymidine kinase promoter adjacent to the coding sequence for luciferase, were described in a previous work.
A culture of the human hepatoblastoma cell line HepG2 (Interlab Cell Line Collection, Genoa, Italy) was conducted in minimum essential medium (MEM) containing 10% heat-inactivated fetal bovine serum, 100 U of penicillin G mL^−1, and 100 μg of streptomycin sulfate mL^−1 at 37 °C in a humidified atmosphere of 5% CO2. For transactivation assays, cells were seeded in a 24-well plate at a concentration of 10^5 cells per well, and were transfected after 24 h with CAPHOS, a calcium phosphate method, according to the manufacturer’s guidelines. Cell transfection was performed using expression plasmids encoding the fusion protein Gal4−PPARα-LBD or Gal4−PPARγ-LBD (30 ng), pGal5TKpGL3 (100 ng), and pCMVβgal (250 ng). Following transfection, cells were incubated for 4 h, after which they underwent treatment with the indicated ligands in triplicate for 20 h. Cell extracts were subsequently analyzed for luciferase activity via luminometry (VICTOR^3 V multilabel plate reader, PerkinElmer). Ortho-nitrophenyl-β-D-galactopyranoside was used to measure β-Galactosidase activity, following a previously described method. All transfection experiments were performed at least twice.

The target of assay [2] is T2, FAAH Human recombinant (Homo sapiens, UniProt O00519).
T2 construct: purchased Cayman Chemical
T2 sequence (O00519 1-579): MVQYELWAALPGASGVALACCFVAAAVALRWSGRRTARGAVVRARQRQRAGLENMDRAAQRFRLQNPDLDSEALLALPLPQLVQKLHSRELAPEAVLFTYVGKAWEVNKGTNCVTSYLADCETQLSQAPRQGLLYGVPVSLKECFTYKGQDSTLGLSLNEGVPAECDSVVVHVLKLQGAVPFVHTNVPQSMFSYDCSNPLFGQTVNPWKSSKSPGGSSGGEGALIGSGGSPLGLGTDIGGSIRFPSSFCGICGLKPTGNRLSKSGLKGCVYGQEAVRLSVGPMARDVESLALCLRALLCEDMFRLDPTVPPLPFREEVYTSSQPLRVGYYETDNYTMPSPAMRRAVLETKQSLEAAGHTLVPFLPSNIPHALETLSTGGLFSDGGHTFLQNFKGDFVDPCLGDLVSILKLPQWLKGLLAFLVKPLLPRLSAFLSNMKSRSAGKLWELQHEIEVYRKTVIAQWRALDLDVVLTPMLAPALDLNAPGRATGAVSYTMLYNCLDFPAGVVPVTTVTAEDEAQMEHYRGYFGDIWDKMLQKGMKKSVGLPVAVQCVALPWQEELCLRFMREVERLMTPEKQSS
Also noted: method as in PMID 32987725. Particulars: lead compounds 1 and 2, not among the eight compounds tested here; cited from earlier work.

Assay [3] concerns the target T3, Aβ40 (Homo sapiens, UniProt P05067).
T3 construct: purchased EZBiolab
Details: method as in PMID 26032855. The settings on record: cited from earlier work.

Marks after values point to notes of the source that are not given here.

T3 sequence (P05067 672-711): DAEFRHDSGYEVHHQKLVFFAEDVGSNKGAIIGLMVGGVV

`O=C(O)C(Cc1ccccc1)Oc1ccc(-c2ccccc2)cc1` (stereo not shown) [Compound 1, reference compound] returned an Emax in assay [1] of 116 ± 4%. Moreover, in assay [2], the IC50 is > 50 µM. For the molecule `O=C(O)C(Cc1ccccc1)Oc1ccc(C=Cc2ccccc2)cc1` (stereo not shown) [Compound 2], the IC50 in assay [2] is 24 ± 2.5 µM. As for `COc1cc2c(cc1OC)C(=O)C(CC1CCN(Cc3ccccc3)CC1)C2` (stereo not shown) [Donepezil, donepezil], in assay [3], the “Aβ40 Aggr. percent of inhibition at 10 μM” value is given as 14 ± 7 ^c %.

What is called Emax is the size of the effect at its maximum, as opposed to the concentration needed. By IC50 is commonly meant the concentration that inhibits the measured activity by half.
